Data from US7709491B2, “Substituted quinazolines as antiviral agents, especially against cytomegaloviruses” (Bayer Schering Pharma Aktiengesellschaft, priority 2002, dated 2010).

Key:
HCMV = assay: Anti-HCMV cytopathogenicity test; assay type: cell-based, human cytomegalovirus; details: for EC50: inhibition of CPE by 50% vs untreated virus control, HCMV-infected NHDF cells, M.O.I. 0.001-0.002, 6 days; for SI HCMV (selectivity index = CC50 (NHDF)/EC50 (HCMV)): ratio CC50 (NHDF)/EC50 (HCMV)
Method: Anti-HCMV (Anti-Human Cytomegalovirus) Cytopathogenicity Tests The test compounds are employed as 50 millimolar (mM) solutions in dimethyl sulfoxide (DMSO). Ganciclovir, foscamet and cidofovir are used as reference compounds. After addition of in each case 2 μl of the 50, 5, 0.5 and 0.05 mM DMSO stock solutions to 98 μl portions of cell culture medium in row […] for duplicate determinations, 1:2 dilutions are carried out with 50 μl portions of medium up to row 11 of the 96-well plate. The wells in rows 1 and 12 each contain 50 μl of medium. 150 μl of a suspension of 1×10^4 cells (human prepuce fibroblasts [NHDF]) are then pipetted into each of the wells (row 1=cell control) and, in rows 2-12, a mixture of HCMV-infected and uninfected NHDF cells (M.O.I.=0.001-0.002), i.e. 1-2 infected cells per 1000 uninfected cells. Row 12 (without substance) serves as virus control. The final test concentrations are 250-0.0005 μM. The plates are incubated at 37° C./5% CO2 for 6 days, i.e. until all the cells are infected in the virus controls (100% cytopathogenic effect [CPE]). The wells are then fixed and stained by adding a mixture of formalin and Giemsa's dye (30 minutes), washed with double-distilled water and dried in a drying oven at 50° C. The plates are then assessed visually using an overhead microscope (plaque multiplier from Technomara). The following data can be acquired from the test plates: EC50 (HCMV)=substance concentration in μM which inhibits the CPE (cytopathic effect) by 50% compared with the untreated virus control; SI (selectivity index)=CC50 (NHDF)/EC50 (HCMV).

[1] = Cytotoxicity on NHDF cells in the anti-HCMV cytopathogenicity test; assay type: cell-based; details: human, NHDF cells (human prepuce fibroblasts), 6 days incubation, visual assessment of cytotoxic effects vs untreated cell control
Method: (§1) Anti-HCMV (Anti-Human Cytomegalovirus) Cytopathogenicity Tests The test compounds are employed as 50 millimolar (mM) solutions in dimethyl sulfoxide (DMSO). Ganciclovir, foscamet and cidofovir are used as reference compounds. After addition of in each case 2 μl of the 50, 5, 0.5 and 0.05 mM DMSO stock solutions to 98 μl portions of cell culture medium in row […] for duplicate determinations, 1:2 dilutions are carried out with 50 μl portions of medium up to row 11 of the 96-well plate. The wells in rows 1 and 12 each contain 50 μl of medium. 150 μl of a suspension of 1×10^4 cells (human prepuce fibroblasts [NHDF]) are then pipetted into each of the wells (row 1=cell control) and, in rows 2-12, a mixture of HCMV-infected and uninfected NHDF cells (M.O.I.=0.001-0.002), i.e. 1-2 infected cells per 1000 uninfected cells. Row 12 (without substance) serves as virus control. The final test concentrations are 250-0.0005 μM. The plates are incubated at 37° C./5% CO2 for 6 days, i.e. until all the cells are infected in the virus controls (100% cytopathogenic effect [CPE]). The wells are then fixed and stained by adding a mixture of formalin and Giemsa's dye (30 minutes), washed with double-distilled water and dried in a drying oven at 50° C. The plates are then assessed visually using an overhead microscope (plaque multiplier from Technomara). The following data can be acquired from the test plates: CC50 (NHDF)=substance concentration in […] at which no visible cytotoxic effects on the cells are evident by comparison with the untreated cell control;

[2] = tested on: NHDF cells (human prepuce fibroblasts); assay: as above; assay type: cell-based; details: 6 days incubation, visual assessment of cytotoxic effects vs untreated cell control
Method: as §1

[3] = Human betaherpesvirus 5, NHDF, 144 h

EC50 (HCMV; [3]) [µM] | EC50 (HCMV) [µM] | Structure (SMILES) | SI HCMV (selectivity index = CC50 (NHDF)/EC50 (HCMV)) (HCMV) | CC50 at 6 days [1] [µM] | CC50 [2] [µM]
0.01 |  | COc1cccc(-c2ccc(C3=Nc4c(F)cccc4C(CC(=O)O)N3c3cc(C(F)(F)F)ccc3OC)cc2)c1 (racemic) [Example 36, {2-[4-(3-Methoxyphenyl)phenyl]-8-fluoro-3-[2-methoxy-5-(trifluoromethyl)phenyl]-3,4-dihydro-4-quinazolinyl}acetic acid] | 1500 | 15 | 
0.1 |  | O=C(O)CC1c2cccc(F)c2N=C(c2ccc(-c3ccc(F)cc3)cc2)N1c1cccc(C(F)(F)F)c1 (racemic) [Example 1] | 150 | 15 | 
 | 0.13 | Cc1cccc(-c2ccc(C3=Nc4c(F)cccc4C(CC(=O)O)N3c3cccc(C(F)(F)F)c3)cc2)c1 (racemic) [Example 3, {8-Fluoro-2-(3′-methyl-1,1′-biphenyl-4-yl)-3-[3-(trifluoromethyl)phenyl]-3,4-dihydro-4-quinazolinyl}acetic acid] | 115 | 15 | 
 | 0.07 | O=C(O)CC1c2cccc(F)c2N=C(c2ccc(-c3ccc(F)cc3)cc2)N1c1cccc(C(F)(F)F)c1 (racemic) [Example 2, {8-Fluoro-2-(4′-fluoro-1,1′-biphenyl-4-yl)-3-[3-(trifluoromethyl)phenyl]-3,4-dihydro-4-quinazolinyl}acetic acid] | 171 |  | 12
0.01 |  | COc1ccc(C(F)(F)F)cc1N1C(c2ccc(-c3ccc(F)cc3)cc2)=Nc2c(F)cccc2C1CC(=O)O (racemic) [Example 32, {2-[4-(4-Fluorophenyl)phenyl]-8-fluoro-3-[2-methoxy-5-(trifluoromethyl)phenyl]-3,4-dihydro-4-quinazolinyl}acetic acid] | 1500 | 15 | 
0.35 |  | O=C(O)CC1c2cccc(F)c2N=C(c2ccc(-c3cccc(F)c3)cc2)N1c1cccc(C(F)(F)F)c1 (stereo not drawn) [Example 6, {8-Fluoro-2-(3′-fluoro-1,1′-biphenyl-4-yl)-3-[3-(trifluoromethyl)phenyl]-3,4-dihydro-4-quinazolinyl}acetic acid] | 34 | 12 | 
0.74 |  | Cc1cc(-c2ccc(C3=Nc4c(F)cccc4C(CC(=O)O)N3c3cccc(C(F)(F)F)c3)cc2)ccc1F (stereo not drawn) [Example 5, {8-Fluoro-2-(4′-fluoro-3′-methyl-1,1′-biphenyl-4-yl)-3-[3-(trifluoromethyl)phenyl]-3,4-dihydro-4-quinazolinyl}acetic acid] | 16 | 12 | 
1.8 |  | O=C(O)CC1c2cccc(F)c2N=C(c2ccc(-c3ccc(F)cc3)cc2F)N1c1cccc(C(F)(F)F)c1 (stereo not drawn) [Example 7, {2-(3,4′-Difluoro-1,1′-biphenyl-4-yl)-8-fluoro-3-[3-(trifluoromethyl)phenyl]-3,4-dihydro-4-quinazolinyl}acetic acid] | 17 | 31 | 
 | 0.06 | Cc1cccc(-c2ccc(C3=Nc4c(F)cccc4C(CC(=O)O)N3c3cccc(C(F)(F)F)c3)cc2)c1 (racemic) [Example 4, {8-Fluoro-2-(3′-methyl-1,1′-biphenyl-4-yl)-3-[3-(trifluoromethyl)phenyl]-3,4-dihydro-4-quinazolinyl}acetic acid] | 143 |  | 8.6
